Experimental data from the supplement of paper PMC12463676, “Small-molecule dissolution of stress granules by redox modulation benefits ALS models” (Nature Chemical Biology, 2025).

Experiments:
potassium arsenate = compound: O=[As]([O-])(O)O.[K+] [potassium arsenate]; assay: thermal stability z-score vs DMSO; higher = more thermally stabilized by treatment; conditions: HeLa; arsenate concentration 1 mM
Experimental: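 Cellular thermal proteome profiling in HeLa cells treated with 1 mM arsenate for 1 h (DMSO pretreatment), heated to ten temperatures (37-66.3 °C). Soluble protein was quantified by TMT mass spectrometry relative to DMSO controls; the thermal stability score was transformed to a z-score; mean of n = 3 experiments.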

lipoamide = compound: NC(=O)CCCCC1CCSS1 [lipoamide]; assay: as above; conditions: HeLa, lipoamide concentration 100 µM
Experimental: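 Cellular thermal proteome profiling in HeLa cells. Cells were treated with 100 µM lipoamide for 1 h, with or without 1 mM arsenate for a further 1 h, then heated to ten temperatures (37-66.3 °C), and soluble protein was quantified by TMT mass spectrometry relative to 0.1% DMSO controls. The thermal stability score (sum of log2 fold changes minus the abundance score) was transformed to a z-score; mean of n = 3 experiments.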

[1] = arsenate co-treatment: 1 mM arsenate 1 h
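Also: each temperature applied for 3 min, abundance score taken as mean log2 fold change at the two lowest temperatures, z-score obtained by mean subtraction and division by SD.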

Chain of UniProt Q7L1W4 (Q7L1W4 whole entry): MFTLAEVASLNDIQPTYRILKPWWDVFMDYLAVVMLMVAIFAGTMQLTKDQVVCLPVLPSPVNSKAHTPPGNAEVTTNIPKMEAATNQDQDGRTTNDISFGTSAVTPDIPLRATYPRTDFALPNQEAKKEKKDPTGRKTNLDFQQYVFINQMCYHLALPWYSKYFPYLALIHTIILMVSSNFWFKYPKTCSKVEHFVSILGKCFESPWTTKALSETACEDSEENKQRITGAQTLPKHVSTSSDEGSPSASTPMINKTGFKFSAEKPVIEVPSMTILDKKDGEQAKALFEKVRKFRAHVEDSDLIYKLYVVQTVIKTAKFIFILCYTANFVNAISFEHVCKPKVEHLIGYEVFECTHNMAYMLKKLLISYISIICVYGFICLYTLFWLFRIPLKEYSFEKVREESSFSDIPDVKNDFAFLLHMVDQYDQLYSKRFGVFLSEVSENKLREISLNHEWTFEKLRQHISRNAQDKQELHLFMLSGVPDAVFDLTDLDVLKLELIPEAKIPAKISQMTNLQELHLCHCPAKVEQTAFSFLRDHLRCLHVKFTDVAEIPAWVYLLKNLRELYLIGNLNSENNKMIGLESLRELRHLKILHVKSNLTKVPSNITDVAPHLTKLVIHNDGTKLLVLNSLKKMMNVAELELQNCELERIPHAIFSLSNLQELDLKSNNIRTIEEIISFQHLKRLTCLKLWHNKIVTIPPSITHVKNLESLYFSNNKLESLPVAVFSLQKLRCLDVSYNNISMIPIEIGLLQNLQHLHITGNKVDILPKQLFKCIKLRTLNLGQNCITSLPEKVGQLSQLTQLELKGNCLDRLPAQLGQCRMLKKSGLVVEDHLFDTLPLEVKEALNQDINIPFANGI
Chain of UniProt Q6P1A2 (Q6P1A2 whole entry): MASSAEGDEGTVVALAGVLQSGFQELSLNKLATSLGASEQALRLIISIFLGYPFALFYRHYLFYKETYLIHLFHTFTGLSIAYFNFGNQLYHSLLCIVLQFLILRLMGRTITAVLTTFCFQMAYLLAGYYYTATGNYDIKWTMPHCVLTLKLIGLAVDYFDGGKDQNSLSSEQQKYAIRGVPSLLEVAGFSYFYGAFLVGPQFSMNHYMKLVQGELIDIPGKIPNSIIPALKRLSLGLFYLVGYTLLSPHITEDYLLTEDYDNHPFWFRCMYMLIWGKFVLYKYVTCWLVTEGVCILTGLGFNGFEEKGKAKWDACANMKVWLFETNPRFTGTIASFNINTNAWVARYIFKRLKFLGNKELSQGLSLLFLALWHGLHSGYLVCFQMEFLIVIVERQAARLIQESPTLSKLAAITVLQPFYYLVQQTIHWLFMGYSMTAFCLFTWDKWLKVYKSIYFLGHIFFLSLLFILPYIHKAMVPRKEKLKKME
Chain of UniProt Q14114 (Q14114 whole entry): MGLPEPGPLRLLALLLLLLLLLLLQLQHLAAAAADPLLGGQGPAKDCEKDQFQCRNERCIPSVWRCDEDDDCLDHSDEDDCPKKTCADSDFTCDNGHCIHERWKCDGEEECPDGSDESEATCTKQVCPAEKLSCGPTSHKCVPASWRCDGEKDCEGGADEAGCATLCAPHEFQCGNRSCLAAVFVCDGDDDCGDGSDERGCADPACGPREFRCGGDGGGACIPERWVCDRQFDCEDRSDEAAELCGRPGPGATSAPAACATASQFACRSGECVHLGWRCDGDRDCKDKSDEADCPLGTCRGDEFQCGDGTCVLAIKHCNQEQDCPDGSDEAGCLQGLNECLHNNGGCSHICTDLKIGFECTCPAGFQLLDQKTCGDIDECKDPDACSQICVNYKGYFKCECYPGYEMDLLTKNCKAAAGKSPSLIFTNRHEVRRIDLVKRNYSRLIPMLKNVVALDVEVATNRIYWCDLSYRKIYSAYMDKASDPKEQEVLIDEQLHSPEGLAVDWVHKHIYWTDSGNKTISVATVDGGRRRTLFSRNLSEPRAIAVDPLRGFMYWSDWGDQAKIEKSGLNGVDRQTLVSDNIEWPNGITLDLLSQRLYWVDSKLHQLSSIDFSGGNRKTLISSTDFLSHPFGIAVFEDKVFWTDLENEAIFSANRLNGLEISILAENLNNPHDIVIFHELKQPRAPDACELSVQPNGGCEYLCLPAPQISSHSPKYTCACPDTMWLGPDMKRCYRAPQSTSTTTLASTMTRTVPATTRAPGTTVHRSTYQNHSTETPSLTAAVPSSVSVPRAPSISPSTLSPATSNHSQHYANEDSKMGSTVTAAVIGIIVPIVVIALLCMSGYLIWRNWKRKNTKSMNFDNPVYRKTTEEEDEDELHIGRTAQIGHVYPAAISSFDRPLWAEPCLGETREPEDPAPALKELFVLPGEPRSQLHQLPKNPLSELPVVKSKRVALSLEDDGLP
Chain of UniProt Q92604 (Q92604 whole entry): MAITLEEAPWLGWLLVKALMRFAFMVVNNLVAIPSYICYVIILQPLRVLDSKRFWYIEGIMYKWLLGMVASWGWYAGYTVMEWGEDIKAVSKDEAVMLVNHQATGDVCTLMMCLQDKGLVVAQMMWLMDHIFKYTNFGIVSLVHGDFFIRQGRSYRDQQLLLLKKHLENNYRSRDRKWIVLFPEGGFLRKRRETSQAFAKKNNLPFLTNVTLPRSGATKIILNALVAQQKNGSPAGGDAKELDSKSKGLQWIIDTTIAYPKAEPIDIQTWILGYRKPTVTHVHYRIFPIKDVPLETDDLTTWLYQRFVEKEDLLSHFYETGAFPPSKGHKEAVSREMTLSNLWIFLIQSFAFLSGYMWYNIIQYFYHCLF
Chain of UniProt Q96CN5 (Q96CN5 whole entry): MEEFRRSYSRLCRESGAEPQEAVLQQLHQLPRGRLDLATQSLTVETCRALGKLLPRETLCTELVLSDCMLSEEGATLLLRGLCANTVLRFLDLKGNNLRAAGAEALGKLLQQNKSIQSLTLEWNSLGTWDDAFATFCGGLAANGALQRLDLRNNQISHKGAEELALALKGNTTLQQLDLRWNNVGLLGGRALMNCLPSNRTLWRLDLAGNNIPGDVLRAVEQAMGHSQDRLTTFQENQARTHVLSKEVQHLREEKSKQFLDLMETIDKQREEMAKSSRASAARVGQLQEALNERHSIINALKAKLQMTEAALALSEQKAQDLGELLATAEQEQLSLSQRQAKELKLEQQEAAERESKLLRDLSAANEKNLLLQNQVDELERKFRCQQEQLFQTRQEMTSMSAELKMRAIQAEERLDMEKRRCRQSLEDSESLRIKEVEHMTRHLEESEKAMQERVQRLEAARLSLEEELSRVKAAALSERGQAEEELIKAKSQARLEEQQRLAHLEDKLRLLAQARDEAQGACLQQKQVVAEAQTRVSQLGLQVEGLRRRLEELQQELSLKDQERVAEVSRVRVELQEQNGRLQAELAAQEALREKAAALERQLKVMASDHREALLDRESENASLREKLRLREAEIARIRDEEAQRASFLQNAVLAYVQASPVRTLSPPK
Chain of UniProt Q8IWT6 (Q8IWT6 whole entry): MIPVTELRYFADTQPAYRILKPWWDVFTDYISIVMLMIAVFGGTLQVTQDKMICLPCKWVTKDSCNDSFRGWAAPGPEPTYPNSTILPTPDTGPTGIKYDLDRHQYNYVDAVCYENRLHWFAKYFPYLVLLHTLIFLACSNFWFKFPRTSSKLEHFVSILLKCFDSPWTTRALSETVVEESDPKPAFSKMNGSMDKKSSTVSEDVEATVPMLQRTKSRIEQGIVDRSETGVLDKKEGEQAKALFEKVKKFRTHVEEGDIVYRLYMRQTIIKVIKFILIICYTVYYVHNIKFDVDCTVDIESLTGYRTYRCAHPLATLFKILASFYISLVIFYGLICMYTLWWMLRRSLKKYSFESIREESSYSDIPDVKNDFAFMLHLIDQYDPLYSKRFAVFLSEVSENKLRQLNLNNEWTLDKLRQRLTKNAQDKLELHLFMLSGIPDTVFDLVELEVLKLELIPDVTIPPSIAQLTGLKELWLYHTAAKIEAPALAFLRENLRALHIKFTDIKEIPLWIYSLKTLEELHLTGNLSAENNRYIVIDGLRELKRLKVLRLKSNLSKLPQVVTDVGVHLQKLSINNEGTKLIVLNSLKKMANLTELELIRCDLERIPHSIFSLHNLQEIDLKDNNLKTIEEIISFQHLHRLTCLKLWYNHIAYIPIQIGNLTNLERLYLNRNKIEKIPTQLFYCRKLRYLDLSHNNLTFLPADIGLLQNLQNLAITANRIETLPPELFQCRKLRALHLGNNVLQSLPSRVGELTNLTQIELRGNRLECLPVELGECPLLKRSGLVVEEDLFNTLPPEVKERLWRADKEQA
Chain of UniProt Q92539 (Q92539 whole entry): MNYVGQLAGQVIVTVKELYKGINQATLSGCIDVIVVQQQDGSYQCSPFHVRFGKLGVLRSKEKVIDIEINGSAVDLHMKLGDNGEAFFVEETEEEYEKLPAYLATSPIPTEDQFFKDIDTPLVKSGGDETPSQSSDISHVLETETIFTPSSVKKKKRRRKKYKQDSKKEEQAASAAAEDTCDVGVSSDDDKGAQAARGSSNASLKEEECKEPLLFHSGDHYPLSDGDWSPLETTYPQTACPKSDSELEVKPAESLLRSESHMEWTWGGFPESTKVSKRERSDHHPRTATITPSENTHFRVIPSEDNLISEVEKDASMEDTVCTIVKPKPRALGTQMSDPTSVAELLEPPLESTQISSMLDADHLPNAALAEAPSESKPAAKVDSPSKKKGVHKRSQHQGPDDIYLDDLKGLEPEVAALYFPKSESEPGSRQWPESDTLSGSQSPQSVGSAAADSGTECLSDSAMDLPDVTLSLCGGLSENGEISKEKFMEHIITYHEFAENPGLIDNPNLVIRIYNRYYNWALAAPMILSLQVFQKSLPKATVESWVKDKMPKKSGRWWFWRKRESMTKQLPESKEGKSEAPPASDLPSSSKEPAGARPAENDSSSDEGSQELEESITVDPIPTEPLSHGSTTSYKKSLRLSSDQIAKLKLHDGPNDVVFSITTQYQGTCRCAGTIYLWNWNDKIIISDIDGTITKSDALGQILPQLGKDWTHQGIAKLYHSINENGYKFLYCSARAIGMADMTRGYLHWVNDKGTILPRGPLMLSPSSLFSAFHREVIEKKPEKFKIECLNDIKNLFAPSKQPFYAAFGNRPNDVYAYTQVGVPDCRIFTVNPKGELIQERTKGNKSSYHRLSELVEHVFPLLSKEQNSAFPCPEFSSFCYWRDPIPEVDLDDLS

Target | thermal stability z-score (potassium arsenate) | thermal stability z-score (lipoamide; [1]) | thermal stability z-score (lipoamide; arsenate co-treatment: none)
LONP1 (UniProt P36776) | -0.763 | -0.482 | -0.277
LONP2 (UniProt Q86WA8) | 0.393 | -0.55 | -0.13
LOXL2 (UniProt Q9Y4K0) | -0.197 | -1.8 | -1.35
LPCAT1 (UniProt Q8NF37) | 0.149 | -0.369 | -0.129
LPCAT2 (UniProt Q7L5N7) | 0.944 | -0.337 | 0.245
LPCAT3 (UniProt Q6P1A2) | 0.724 | 0.125 | 0.0829
LPCAT4 (UniProt Q643R3) | 0.519 | -0.953 | 0.367
LPGAT1 (UniProt Q92604) | 0.251 | -0.218 | 0.0487
LPIN1 (UniProt Q14693) | -1.07 | -0.429 | -0.906
LPIN2 (UniProt Q92539) | 0.00612 | 0.528 | 0.214
LPP (UniProt Q93052) | -5.37 | -0.407 | -0.444
LRBA (UniProt P50851) | 0.326 | 0.015 | 0.0915
LRCH1 (UniProt Q9Y2L9) | 0.494 | 0.0183 | 0.0529
LRCH3 (UniProt Q96II8) | -0.153 | -0.0719 | -0.00251
LRCH4 (UniProt O75427) | -0.13 | 0.0394 | -0.101
LRP1 (UniProt Q07954) | -0.0899 | -1.1 | -1.01
LRP6 (UniProt O75581) | -0.531 | -2.59 | -1.1
LRP8 (UniProt Q14114) | -0.43 | -0.785 | -0.422

Target | thermal stability z-score (potassium arsenate) | thermal stability z-score (lipoamide; [1]) | thermal stability z-score (lipoamide; arsenate co-treatment: none)
LRPAP1 (UniProt P30533) | -0.32 | -1.07 | -0.56
LRPPRC (UniProt P42704) | -0.267 | -1.08 | -0.312
LRR1 (UniProt Q96L50) | -0.256 | 0.148 | 0.192
LRRC8A (UniProt Q8IWT6) | -0.275 | 0.614 | 0.234
LRRC8D (UniProt Q7L1W4) | -0.198 | 0.38 | -0.0451
LRRC8E (UniProt Q6NSJ5) | -0.237 | 0.43 | -0.139
LRRC16A (UniProt Q5VZK9) | 1.26 | 0.276 | 0.0854
LRRC40 (UniProt Q9H9A6) | 0.245 | -0.119 | 0.108
LRRC41 (UniProt Q15345) | -0.546 | -0.134 | -0.26
LRRC42 (UniProt Q9Y546) | -0.0558 | -0.294 | -0.0469
LRRC45 (UniProt Q96CN5) | 0.0892 | -0.00638 | 0.0708
LRRC47 (UniProt Q8N1G4) | 1.06 | 0.175 | 0.38
LRRC57 (UniProt Q8N9N7) | -0.186 | 0.252 | -0.185
LRRC59 (UniProt Q96AG4) | -1.86 | -0.768 | -0.195
LRRFIP1 (UniProt Q32MZ4) | 0.228 | 0.409 | 0.475
LRRFIP2 (UniProt Q9Y608) | 1.07 | 1.31 | 1.11
LRSAM1 (UniProt Q6UWE0) | -0.676 | -0.763 | -0.714
